Data from US10336762B2 (priority 2017, dated 2019).
Like-named read-outs stand apart in the source and are kept apart here.

Assays:
IRAK4 enzyme = IRAK4 enzyme (Homo sapiens (Human), UniProt Q9NWZ3); test: biochemical; format: biochemical
TNFα = test: cells; format: cell-based, human; settings: read-out: EC50 TNF
[1] = IRAK4 enzyme, TR-FRET, 500 μM ATP
[2] = Homo sapiens, Monocyte, LPS-stimulated human monocytes, TNFα content
[3] = IRAK4 enzyme, TR-FRET (HTRF), 500 μM ATP
[4] = Homo sapiens, Monocyte, LPS-stimulated human monocytes, TNFα by TR-FRET
[5] = LPS-stimulated human monocytes, TNFα content

Sequence of IRAK4 enzyme (Q9NWZ3 whole entry): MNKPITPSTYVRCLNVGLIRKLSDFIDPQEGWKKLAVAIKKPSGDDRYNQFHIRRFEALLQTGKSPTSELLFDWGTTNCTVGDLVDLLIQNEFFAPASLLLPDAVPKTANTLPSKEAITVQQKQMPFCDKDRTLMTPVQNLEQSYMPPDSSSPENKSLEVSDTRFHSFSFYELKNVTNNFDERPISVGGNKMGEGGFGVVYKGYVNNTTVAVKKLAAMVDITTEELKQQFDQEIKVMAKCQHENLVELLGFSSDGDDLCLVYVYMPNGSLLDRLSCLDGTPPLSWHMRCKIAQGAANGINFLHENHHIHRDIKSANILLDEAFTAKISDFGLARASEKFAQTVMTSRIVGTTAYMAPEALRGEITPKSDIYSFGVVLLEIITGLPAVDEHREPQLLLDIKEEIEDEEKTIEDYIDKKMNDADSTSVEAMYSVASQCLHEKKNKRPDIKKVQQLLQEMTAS

Row | SMILES | IC50 (IRAK4 enzyme; [1]) [nM] | EC50 (TNFα; [2]) [nM] | IC50 (IRAK4 enzyme; [3]) [nM] | other results
1 | CNC(=O)O[C@H]1CC[C@H](Nc2cc(-c3ccc4cc(C#N)cnn34)ncc2C(=O)NC[C@@H](F)C(C)(C)O)CC1 [Example 165, (1R,4r)-4-((2-(3-cyano-pyrrolo[1,2-b]pyridazin-7-yl)-5-(((R)-2-fluoro-3-hydroxy-3-methylbutyl)carbamoyl)pyridin-4-yl)amino)cyclohexyl methylcarbamate] | 59 | > 10000 |  | 
2 | CC1(O)CC2(CC(Nc3cc(-c4ccc5cc(C#N)cnn45)ncc3C(=O)NC[C@@H](F)C(C)(C)O)C2)C1 (stereo partly drawn) [Example 510, (R)-6-(3-cyanopyrrolo[1,2-b]pyridazin-7-yl)-N-(2-fluoro-3-hydroxy-3-methylbutyl)-4-((6-hydroxy-6-methylspiro[3.3]heptan-2-yl)amino)nicotinamide] |  | 39 | < 1 | 
3 | CC1(C(=O)N2CCC(Nc3cc(-c4ccc5cc(C#N)cnn45)ncc3C(=O)NC[C@@H](F)C(C)(C)O)CC2)COC1 [Example 325, (R)-6-(3-cyanopyrrolo[1,2-b]pyridazin-7-yl)-N-(2-fluoro-3-hydroxy-3-methylbutyl)-4-((1-(3-methyloxetane-3-carbonyl)piperidin-4-yl)amino)nicotinamide] | 3 | 228 |  | 
4 | CC(C)(O)[C@H](F)CNC(=O)c1cnc(-c2ccc3cc(C#N)cnn23)cc1Nc1ccc(N2CCCC2)nc1 [Example 877, (R)-6-(3-cyano-pyrrolo[1,2-b]pyridazin-7-yl)-N-(2-fluoro-3-hydroxy-3-methylbutyl)-4-((6-(pyrrolidin-1-yl)pyridin-3-yl)amino) nicotinamide] | 2 |  |  | EC50 (TNFα; [4]): 46 nM
5 | CC(=O)NC12CC(Nc3cc(-c4ccc5cc(C#N)cnn45)ncc3C(=O)NC3(C#N)CC3)(C1)C2 [Example 492, 4-((3-acetamido-bicyclo[1.1.1]pentan-1-yl)amino)-N-(1-cyano-cyclopropyl)-6-(3-cyanopyrrolo[1,2-b]pyridazin-7-yl)nicotinamide] |  | 101 | 1 | 
6 | Cc1ncc(Nc2cc(-c3ccc4cc(C#N)cnn34)ncc2C(=O)NC[C@@H](F)C(C)(C)O)cn1 [Example 595, (R)-6-(3-cyano-pyrrolo[1,2-b]pyridazin-7-yl)-N-(2-fluoro-3-hydroxy-3-methylbutyl)-4-((2-methylpyrimidin-5-yl)amino)nicotinamide] |  | 107 | < 1 | 
7 | CC(=O)NC[C@@H]1CCCN1c1ccc(Nc2cc(-c3ccc4cc(C#N)cnn34)ncc2C(=O)NC[C@@H](F)C(C)(C)O)cn1 [Example 878, 4-((6-((S)-2-(acetamidomethyl)pyrrolidin-1-yl)pyridin-3-yl)amino)-6-(3-cyanopyrrolo[1,2-b]pyridazin-7-yl)-N-((R)-2-fluoro-3-hydroxy-3-methylbutyl)nicotinamide] | 2 |  |  | EC50 (TNFα; [4]): 141 nM
8 | CC(C)Oc1cccc(Nc2cc(-c3ccc4cc(C#N)cnn34)ncc2C(=O)NC[C@@H](F)C(C)(C)O)c1 [Example 837, (R)-6-(3-cyanopyrrolo[1,2-b]pyridazin-7-yl)-N-(2-fluoro-3-hydroxy-3-methylbutyl)-4-((3-isopropoxyphenyl)amino)nicotinamide] | 3 |  |  | EC50 (TNFα; [4]): 117 nM
9 | CNC(=O)O[C@H]1C[C@@](C)(Nc2cc(-c3ccc4cc(C#N)cnn34)ncc2C(=O)NC[C@@H](F)C(C)(C)O)C1 [Example 356] | 6 | 800 |  | 
10 | CC(C)(O)[C@H](F)CNC(=O)c1cnc(-c2ccc3cc(C#N)cnn23)cc1Nc1cnc(C2CC2)nc1 [Example 666, (R)-6-(3-cyanopyrrolo[1,2-b]pyridazin-7-yl)-4-((2-cyclopropylpyrimidin-5-yl)amino)-N-(2-fluoro-3-hydroxy-3-methylbutyl) nicotinamide] |  | 30 | < 1 | 
11 | C=CC(=O)N[C@H]1CC[C@H](NC(=O)c2cnc(-c3ccc4cc(C#N)cnn34)cc2NC2CCCC(O)C2)CC1 (stereo partly drawn) [Example 505, N-((1r,4S)-4-acrylamidocyclohexyl)-6-(3-cyanopyrrolo[1,2-b]pyridazin-7-yl)-4-(((1S,3R)-3-hydroxycyclohexyl)amino)nicotinamide] |  | 139 | 1 | 
12 | CC1(O)CC2(CC(Nc3cc(-c4ccc5cc(C#N)cnn45)ncc3C(=O)NCC#N)C2)C1 (stereo not shown) [Example 452, N-(cyanomethyl)-6-(3-cyanopyrrolo[1,2-b]pyridazin-7-yl)-4-((6-hydroxy-6-methyl-spiro[3.3]heptan-2-yl)amino)nicotinamide] |  | 112 | < 1 | 
13 | CC(C)(O)[C@H](F)CNC(=O)c1cnc(-c2ccc3cc(C#N)cnn23)cc1NC1CC2CCC(C1)N2S(C)(=O)=O (stereo partly drawn) [Example 29, 6-(3-cyanopyrrolo[1,2-b]pyridazin-7-yl)-N-((R)-2-fluoro-3-hydroxy-3-methylbutyl)-4-(((1R,3s,5S)-8-(methylsulfonyl)-8-azabicyclo[3.2.1]octan-3-yl)amino)nicotinamide] | < 1 |  |  | EC50 (TNFα; [5]): 100 nM
14 | CC(C)(O)[C@H](F)CNC(=O)c1cnc(-c2ccc3cc(C#N)cnn23)cc1Nc1ccc(-n2cncn2)nc1 [Example 766, (R)-4-((6-(1H-1,2,4-triazol-1-yl)pyridin-3-yl)amino)-6-(3-cyanopyrrolo[1,2-b]pyridazin-7-yl)-N-(2-fluoro-3-hydroxy-3-methyl-butyl)nicotinamide] |  | 38 | < 1 | 
15 | CNC(=O)c1cnc(-c2ccc3cc(C#N)cnn23)cc1NC12CC(C1)C2 [Example 489, 4-(bicyclo[1.1.1]pentan-1-ylamino)-6-(3-cyano-pyrrolo[1,2-b]pyridazin-7-yl)-N-methylnicotinamide] |  | 121 | 2 | 
16 | [2H]C([2H])([2H])N(C(=O)C12CCC(Nc3cc(-c4ccc5cc(C#N)cnn45)ncc3C(=O)NC[C@@H](F)C(C)(C)O)(CC1)CC2)C([2H])([2H])[2H] [Example 404, (R)-4-((4-(bis(methyl-d3)carbamoyl)bicyclo[2.2.2]octan-1-yl)amino)-6-(3-cyanopyrrolo[1,2-b]pyridazin-7-yl)-N-(2-fluoro-3-hydroxy-3-methylbutyl)nicotinamide] |  | 11 | 1 | 
17 | CC(C)(O)[C@H](F)CNC(=O)c1cnc(-c2ccc3cc(C#N)cnn23)cc1N[C@H]1C[C@H](CNC(=O)[C@@H]2C[C@H]2F)C1 [Example 659, 6-(3-cyanopyrrolo[1,2-b]pyridazin-7-yl)-N-((R)-2-fluoro-3-hydroxy-3-methylbutyl)-4-(((1S,3R)-3-(((1S,2R)-2-fluoro-cyclopropane-1-carbox-amido)methyl)cyclobutyl)amino)nicotinamide] |  | 16 | < 1 | 
18 | CC(C)(O)[C@H](F)CNC(=O)c1cnc(-c2ccc3cc(C#N)cnn23)cc1NC1CCCC(S(C)(=O)=O)C1 (single isomer, unassigned) [Example 516] |  |  | 2 | EC50 (TNFα; [5]): 595 nM
19 | CC1(C(=O)N[C@H]2CC[C@H](Nc3cc(-c4ccc5cc(C#N)cnn45)ncc3C(=O)NC[C@@H](F)C(C)(C)O)CC2)COC1 [Example 282, 6-(3-cyanopyrrolo[1,2-b]pyridazin-7-yl)-N-((R)-2-fluoro-3-hydroxy-3-methylbutyl)-4-(((1r,4R)-4-(3-methyloxetane-3-carboxamido)cyclohexyl)amino)nicotinamide] |  |  |  | IC50 (IRAK4 enzyme): 2 nM; EC50 (TNFα; Homo sapiens, Monocyte): 364 nM
20 | CC(C)(O)[C@H](F)CNC(=O)c1cnc(-c2ccc3cc(C#N)cnn23)cc1Nc1ccc2ncccc2c1 [Example 820, (R)-6-(3-cyanopyrrolo[1,2-b]pyridazin-7-yl)-N-(2-fluoro-3-hydroxy-3-methylbutyl)-4-(quinolin-6-ylamino)nicotinamide] | < 1 |  |  | EC50 (TNFα; [4]): 59 nM
21 | CC(C)(O)[C@H](F)CNC(=O)c1cnc(-c2ccc3cc(C#N)cnn23)cc1NCC1(O)CC1 [Example 97, (R)-6-(3-cyanopyrrolo[1,2-b]pyridazin-7-yl)-N-(2-fluoro-3-hydroxy-3-methylbutyl)-4-(((1-hydroxycyclopropyl)methyl)amino)nicotinamide] | 2 | 180 |  | 
22 | COCC1(Nc2cc(-c3ccc4cc(C#N)cnn34)ncc2C(=O)NC[C@@H](F)C(C)(C)O)CC1 [Example 112, (R)-6-(3-cyano-pyrrolo[1,2-b]pyridazin-7-yl)-N-(2-fluoro-3-hydroxy-3-methylbutyl)-4-((1-(methoxymethyl)cyclopropyl)amino)nicotinanide] | 4 | 399 |  | 
23 | COC(=O)N1CCN(c2ccc(Nc3cc(-c4ccc5cc(C#N)cnn45)ncc3C(=O)NC[C@@H](F)C(C)(C)O)cn2)CC1 [Example 870, (R)-methyl 4-(5-((2-(3-cyanopyrrolo[1,2-b]pyridazin-7-yl)-5-((2-fluoro-3-hydroxy-3-methylbutyl)carbamoyl)pyridin-4-yl)amino)pyridin-2-yl)piperazine-1-carboxylate] | 1 |  |  | EC50 (TNFα; [4]): 81 nM
24 | N#Cc1cnn2c(-c3cc(NC45CCC(O)(CC4)CC5)c(C(=O)NCCO)cn3)ccc2c1 [Example 745, 6-(3-cyanopyrrolo[1,2-b]pyridazin-7-yl)-4-((4-hydroxybicyclo[2.2.2]octan-1-yl)amino)-N-(2-hydroxyethyl)nicotinamide] |  | 87 | < 1 | 
25 | CC(C)Nc1cc(-c2ccc3cc(C#N)cnn23)ncc1C(=O)NCC1CS(=O)(=O)C1 [Example 72, 6-(3-cyanopyrrolo[1,2-b]pyridazin-7-yl)-N-((1,1-dioxidothietan-3-yl)methyl)-4-(isopropylamino) nicotinamide] | 4 | 159 |  | 
26 | CC(C)(O)[C@H](F)CNC(=O)c1cnc(-c2ccc3cc(C#N)cnn23)cc1Nc1ccn2nccc2c1 [Example 975, (R)-6-(3-cyanopyrrolo[1,2-b]pyridazin-7-yl)-N-(2-fluoro-3-hydroxy-3-methyl-butyl)-4-(pyrazolo[1,5-a]pyridin-5-ylamino) nicotinamide] | < 1 |  |  | EC50 (TNFα; [4]): 67 nM
